# Data published in patent US20050075494A1, “Isolated nucleic acid molecules encoding a human and mouse g protein-coupled receptor-gpr54: encoded proteins, cells transformed therewith and uses thereof” (priority 2000, published 2005).
# Experiments:
# Format in all cases: cell-based
# Human GPR54 receptor = target: T1, Human GPR54 receptor (Homo sapiens, UniProt Q969F8, L364H); experiment: aequorin assay in HEK293/aeq17 cells expressing human GPR54; conditions: aequorin luminescence, 5-fold serial dilutions, triplicates
# T1 construct: Clones containing full-length GPR54 were thus identified; expressed in transfected cells
# Experimental: The HEK293/aeq17 cell line was licensed in from NIH (Button and Brownstein, 1993, Cell Calcium, 14:663-671). The cells were grown in Dulbecco's Modified Medium (MEM, GIBCO-BRL, Gaithersburg, Md., USA)+10% fetal bovine serum (heat inactivated), 1 mM sodium pyruvate, 500 ug/ml Geneticin, 100 ug/ml streptomycin, 100 units/ml penicillin. […] Puromycin-resistant clones were selected and bulk stables were used for further analysis.
# For the aequorin assay, cell were washed once with DMEM+0.1% fetal bovine serum, and then charged for one hour at 37° C. 15% CO2 in DMEM containing 8 uM coelenterazine cp (Molecular Probes, Eugene, Oreg., USA) and 30 uM glutathione. […] The cell density was determined by counting with a hemacytometer and adjusted to 500,000 cells/ml in ECB.
# The neuropeptides were diluted in ECB into 2× concentrates using 5-fold serial dilutions, and aliquoted into assay plates in triplicates at 0.1 ml/well. The cell suspension was injected at 0.1 ml/well, read and integrated for a total of 400 readings using a luminometer (Luminoskan Ascent, Labsystems Oy, Helsinki, Finland). Data was analyzed using the software GraphPad Prism Version 3.0 (GraphPad Software, Inc., San Diego, Calif., USA).
# rat GPR54 = target: T2, rat GPR54 (Rattus norvegicus, UniProt Q924U1); experiment: β-lactamase reporter enzyme assay in CHO-NPAT-bla cells expressing rat GPR54
# T2 construct: expressed in transfected cells
# Experimental: The full-length coding sequence of rat GPR54 was sub-cloned into the expression vector pIRESpuromycin (Clontech, Palo Alto, Calif., USA) in accordance with the manufactures directions. This GPR54 plasmid was transfected into Aurora's CHO-NPAT-bla cells using the reagent Lipofectamine 2000 (GIBCO-BRL, Gaithersburg, Md., USA). Puromycin-resistant bulk stables expressing rat GPR54 were selected and used for screening for agonist.
# β-lactamase assays were carried as described by (Zlokarnik et al., 1998, Quantitation of transcription and clonal selection of single living cells with beta-lactamase as reporter. Science 1998, 279:84-88). All peptides were from Phoenix Pharmaceuticals. […] Four (4) hours after the addition of ligands, cells were loaded with dye and measured for fluorescence approximately 45 minutes later.
# An extremely sensitive transcription-based assay is disclosed in Zlokarnik et al., 1998, Science 279:84-88 (Zlokarnik) and also in U.S. Pat. No. 5,741,657, both of which are incorporated by reference in their entirety herein. […] This increase in β-lactamase is measured by treating the cells with a cell-permeable dye that is a substrate for cleavage by β-lactamase. […] In the intact dye, the two fluorescent moieties are physically linked, and thus close enough to one another that fluorescence resonance energy transfer FRET) can take place between them. […]
# [1] = system: Control cells (cells that do not express rat GPR54); experiment: β-lactamase reporter assay in control cells; conditions: data not shown
# Experimental: β-lactamase assays were carried as described by (Zlokarnik et al., 1998, Quantitation of transcription and clonal selection of single living cells with beta-lactamase as reporter. Science 1998, 279:84-88). All peptides were from Phoenix Pharmaceuticals. Cells were seeded two days prior to assay. The day before being assayed, cells were changed to serum-free media. Four (4) hours after the addition of ligands, cells were loaded with dye and measured for fluorescence approximately 45 minutes later.
# These peptides were then individually tested against GPR54-expressing cells.
# T2 sequence (Q924U1 whole entry): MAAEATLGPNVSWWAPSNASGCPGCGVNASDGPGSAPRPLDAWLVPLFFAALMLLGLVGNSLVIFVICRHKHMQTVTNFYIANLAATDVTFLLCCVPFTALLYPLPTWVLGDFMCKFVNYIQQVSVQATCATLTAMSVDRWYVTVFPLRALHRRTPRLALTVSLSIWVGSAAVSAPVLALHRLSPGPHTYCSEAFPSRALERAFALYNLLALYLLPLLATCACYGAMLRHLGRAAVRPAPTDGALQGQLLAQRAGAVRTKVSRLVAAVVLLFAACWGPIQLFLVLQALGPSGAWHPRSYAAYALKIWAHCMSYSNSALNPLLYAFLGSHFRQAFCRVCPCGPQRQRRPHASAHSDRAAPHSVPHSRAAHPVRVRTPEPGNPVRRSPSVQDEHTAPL
# T1 sequence (Q969F8 whole entry L364H): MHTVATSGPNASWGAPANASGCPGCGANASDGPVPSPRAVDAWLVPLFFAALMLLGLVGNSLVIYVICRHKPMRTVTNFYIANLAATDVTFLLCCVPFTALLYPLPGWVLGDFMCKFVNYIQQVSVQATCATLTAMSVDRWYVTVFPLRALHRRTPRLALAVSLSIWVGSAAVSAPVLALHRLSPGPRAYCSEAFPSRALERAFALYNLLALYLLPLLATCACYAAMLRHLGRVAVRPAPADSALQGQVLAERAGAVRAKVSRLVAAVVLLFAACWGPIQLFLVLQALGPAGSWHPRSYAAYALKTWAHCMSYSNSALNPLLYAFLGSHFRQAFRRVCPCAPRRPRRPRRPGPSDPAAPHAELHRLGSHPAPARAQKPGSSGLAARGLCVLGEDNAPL
Substance,response of cells expressing Human GPR54 receptor (FIG. 9) (Human GPR54 receptor),dose-response activation of rat GPR54 (FIG. 8) (rat GPR54; peptides individually tested against GPR54-expressing cells),"activation of rat GPR54 in the primary screening (rat GPR54; primary agonist screening, cells expressing rat GPR54, β-lactamase readout 4 hours after ligand addition)",response of control cells [1]
antho-RW amide II,"robust, dose-dependent response",,,
antho-RWamide I,"robust, dose-dependent response",activated rat GPR54 in a dose-dependent manner,activate rat GPR54 specifically,no response
